Test results: the supplement of paper PMC10307832

Legend:
Experiment in all cases: relative viability (nuclei count vs DMSO), 5 days (fraction); higher = more cells survive
Sunitinib + OSI-027 = compound: CCN(CC)CCNC(=O)c1c(C)[nH]c(/C=C2\C(=O)Nc3ccc(F)cc32)c1C [Sunitinib] + COc1cccc2cc(-c3nc([C@H]4CC[C@H](C(=O)O)CC4)n4ncnc(N)c34)[nH]c12 [OSI-027] (partner 0.5 µM)
How it was run: (§1)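 Medians of duplicate plates are given as relative viability. That measure is the nuclei count in treated wells divided by the count in vehicle wells. Counts were taken on 4× images of lung cancer cell lines in 1536-well plates, 5 days after pin-tool dosing the day after seeding with one drug alone or a fixed anchor-drug dose plus five library-drug doses (not always all listed) in √10 steps.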

Sunitinib + Trametinib = compound: CCN(CC)CCNC(=O)c1c(C)[nH]c(/C=C2\C(=O)Nc3ccc(F)cc32)c1C [Sunitinib] + CC(=O)Nc1cccc(-n2c(=O)n(C3CC3)c(=O)c3c(Nc4ccc(I)cc4F)n(C)c(=O)c(C)c32)c1 [Trametinib] (partner 0.02 µM)
How it was run: as §1

Sunitinib + Phenformin = compound: CCN(CC)CCNC(=O)c1c(C)[nH]c(/C=C2\C(=O)Nc3ccc(F)cc32)c1C [Sunitinib] + N=C(N)NC(=N)NCCc1ccccc1 [Phenformin] (partner 250 µM)
How it was run: as §1

Sunitinib = compound: CCN(CC)CCNC(=O)c1c(C)[nH]c(/C=C2\C(=O)Nc3ccc(F)cc32)c1C [Sunitinib]
How it was run: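 Viability was defined as treated-well nuclei divided by vehicle-well nuclei, with the median taken over replicate plates. Cells from lung cancer lines sat overnight at 37 °C in 1536-well plates, received five √10-spaced library-drug doses by pinning on vehicle-anchored plates, and grew 5 days without medium change before one-step fixation, permeabilisation and Hoechst staining, 4× imaging and MetaXpress nuclear counts. Only plates with control CV under 25% and at least one doubling were kept.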

Row | Cell Line | relative viability (Sunitinib + OSI-027; first compound 0.02 µM) | relative viability (Sunitinib + OSI-027; first compound 0.06325 µM) | relative viability (Sunitinib + OSI-027; first compound 0.2 µM) | relative viability (Sunitinib + OSI-027; first compound 0.6325 µM) | relative viability (Sunitinib + OSI-027; first compound 2 µM) | relative viability (Sunitinib + Trametinib; first compound 0.02 µM) | relative viability (Sunitinib + Trametinib; first compound 0.06325 µM) | relative viability (Sunitinib + Trametinib; first compound 0.2 µM) | relative viability (Sunitinib + Trametinib; first compound 0.6325 µM) | relative viability (Sunitinib + Trametinib; first compound 2 µM) | relative viability (Sunitinib + Phenformin; first compound 0.02 µM) | relative viability (Sunitinib + Phenformin; first compound 0.06325 µM) | relative viability (Sunitinib + Phenformin; first compound 0.2 µM) | relative viability (Sunitinib + Phenformin; first compound 0.6325 µM) | relative viability (Sunitinib + Phenformin; first compound 2 µM) | relative viability (Sunitinib; 0.02 µM) | relative viability (Sunitinib; 0.06325 µM) | relative viability (Sunitinib; 0.2 µM) | relative viability (Sunitinib; 0.6325 µM) | relative viability (Sunitinib; 2 µM)
1 | LXF-289 | 0.759 | 0.964 | 0.863 | 0.913 | 0.961 | 0.621 | 0.714 | 0.679 | 0.728 | 0.689 | 0.461 | 0.517 | 0.548 | 0.533 | 0.511 | 0.949 | 0.986 | 1.04 | 1.02 | 1.01
2 | NCI-H23 | 0.57 | 0.749 | 0.675 | 0.803 | 0.469 | 0.345 | 0.348 | 0.334 | 0.391 | 0.351 | 0.753 | – | 0.93 | 0.878 | 0.763 | 0.849 | 1.15 | 1.07 | 1.17 | 0.938
3 | NCI-H322M | 0.53 | 0.582 | 0.656 | 0.624 | 0.549 | 0.536 | 0.516 | 0.554 | 0.477 | 0.525 | 0.736 | 0.857 | – | 0.855 | 0.7 | 0.866 | 1.02 | 1 | 0.936 | 0.892
4 | NCI-H358 | 0.685 | 0.814 | 0.878 | 0.691 | 0.38 | 0.137 | 0.143 | 0.138 | 0.127 | 0.14 | 0.322 | 0.447 | 0.373 | 0.348 | 0.29 | 0.875 | 0.97 | 1.1 | 0.897 | 0.67
5 | NCI-H441 | 0.651 | 0.751 | 0.898 | 0.684 | 0.47 | 0.432 | 0.581 | 0.518 | 0.524 | 0.409 | 0.729 | 0.816 | 0.781 | 0.957 | 0.793 | 0.863 | – | 1.17 | 1.11 | 1.12
6 | NCI-H460 | 0.593 | 0.717 | 0.78 | 0.768 | 0.467 | 0.104 | 0.185 | 0.226 | 0.287 | 0.191 | 0.48 | 0.567 | 0.54 | 0.535 | 0.487 | – | – | 1.05 | 0.995 | 1.08
7 | NCI-H520 | 0.249 | 0.286 | 0.321 | 0.292 | 0.3 | 0.657 | 0.813 | 0.727 | 0.772 | 0.601 | 0.674 | 0.685 | 0.471 | 0.661 | 0.424 | 0.926 | 1.08 | 1.07 | 0.979 | 0.912
8 | NCI-H522 | 0.648 | 0.831 | 0.769 | 0.744 | 0.69 | – | 0.672 | 0.667 | 0.783 | 0.794 | 0.602 | 0.79 | 0.659 | 0.673 | 0.756 | 0.927 | 1.12 | 0.996 | 0.962 | 0.999
9 | NCI-H596 | 0.731 | 0.799 | 0.787 | 0.699 | 0.552 | 0.762 | 0.86 | 0.723 | – | 1.02 | 0.641 | 0.816 | 0.829 | 0.792 | 0.723 | 0.952 | 1.15 | – | 0.998 | 0.913
10 | NCI-H647 | 0.631 | 0.725 | 0.562 | 0.821 | 0.575 | 0.367 | 0.479 | 0.547 | 0.426 | 0.408 | 0.489 | 0.72 | 0.542 | 0.55 | 0.471 | 0.991 | 1.14 | 1.03 | 0.989 | 0.956
11 | NCI-H650 | 0.535 | 0.553 | 0.524 | 0.586 | 0.514 | 0.917 | 1.04 | 1.16 | 0.988 | 1.01 | 0.444 | 0.46 | 0.428 | 0.49 | 0.465 | 0.906 | 1.1 | 1.01 | 1.03 | 1.08
12 | NCI-H661 | 0.646 | 0.785 | 0.801 | 0.767 | 0.704 | 0.513 | 0.597 | 0.703 | 0.63 | 0.649 | 0.263 | 0.31 | 0.27 | 0.264 | 0.265 | 0.977 | – | 1 | 1.05 | 1.03
13 | NCI-H727 | 0.717 | 0.574 | 0.757 | 0.687 | 0.631 | 0.409 | 0.412 | 0.412 | 0.396 | 0.367 | 0.475 | 0.733 | 0.649 | 0.67 | 0.538 | 0.942 | 1.17 | 1.23 | 1.09 | 0.859
14 | NCI-H838 | 0.386 | 0.358 | 0.423 | 0.319 | 0.317 | 0.473 | 0.558 | 0.647 | 0.534 | 0.489 | 0.546 | 0.769 | 0.583 | 0.583 | 0.511 | 0.932 | 1.06 | 1.03 | 0.952 | 0.782
15 | NCI-H1355 | 0.431 | 0.455 | 0.441 | 0.437 | 0.365 | 0.44 | 0.438 | 0.567 | 0.437 | 0.376 | 0.441 | 0.453 | 0.473 | 0.482 | 0.432 | 0.962 | 1.07 | 1.12 | 1.02 | 1.05
16 | NCI-H1395 | 0.648 | 0.701 | 0.632 | 0.739 | 0.697 | 0.92 | – | 1.22 | 0.988 | 0.99 | 0.462 | 0.415 | 0.446 | 0.487 | 0.482 | 1.02 | 1.01 | 0.925 | 0.991 | 0.945
